# Data as given in patent US11021481B2, “Substituted isoindolin-1-ones and 2,3-dihydro-1h-pyrrolo[3,4-c]pyridin-1-ones as HPK1 antagonists” (Nimbus Saturn, Inc., priority 2019, dated 2021).
# Counter-ions that a name gives are not always drawn.
# Molecular target: HPK1 (Homo sapiens (Human), UniProt Q92918)
# Assay: HPK1 biochemical enzyme assay (microfluidic mobility shift assay)
# Settings: 1.5 nM HPK1, ATP 1 mM final, 30 min preincubation, 60 min at RT, Caliper EZ Reader; read-out: HPK1 1000UMATP caliper IC50
# Method in brief: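 Mobility shift readout of HPK1 activity after a 60 min RT reaction with 1 mM ATP, 1 μM substrate and 5 mM MgCl2. Enzyme/substrate mix was first exposed to compounds for 30 min, using ten-point curves topping at 3 μM final.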
# HPK1, sequence (Q92918 whole entry): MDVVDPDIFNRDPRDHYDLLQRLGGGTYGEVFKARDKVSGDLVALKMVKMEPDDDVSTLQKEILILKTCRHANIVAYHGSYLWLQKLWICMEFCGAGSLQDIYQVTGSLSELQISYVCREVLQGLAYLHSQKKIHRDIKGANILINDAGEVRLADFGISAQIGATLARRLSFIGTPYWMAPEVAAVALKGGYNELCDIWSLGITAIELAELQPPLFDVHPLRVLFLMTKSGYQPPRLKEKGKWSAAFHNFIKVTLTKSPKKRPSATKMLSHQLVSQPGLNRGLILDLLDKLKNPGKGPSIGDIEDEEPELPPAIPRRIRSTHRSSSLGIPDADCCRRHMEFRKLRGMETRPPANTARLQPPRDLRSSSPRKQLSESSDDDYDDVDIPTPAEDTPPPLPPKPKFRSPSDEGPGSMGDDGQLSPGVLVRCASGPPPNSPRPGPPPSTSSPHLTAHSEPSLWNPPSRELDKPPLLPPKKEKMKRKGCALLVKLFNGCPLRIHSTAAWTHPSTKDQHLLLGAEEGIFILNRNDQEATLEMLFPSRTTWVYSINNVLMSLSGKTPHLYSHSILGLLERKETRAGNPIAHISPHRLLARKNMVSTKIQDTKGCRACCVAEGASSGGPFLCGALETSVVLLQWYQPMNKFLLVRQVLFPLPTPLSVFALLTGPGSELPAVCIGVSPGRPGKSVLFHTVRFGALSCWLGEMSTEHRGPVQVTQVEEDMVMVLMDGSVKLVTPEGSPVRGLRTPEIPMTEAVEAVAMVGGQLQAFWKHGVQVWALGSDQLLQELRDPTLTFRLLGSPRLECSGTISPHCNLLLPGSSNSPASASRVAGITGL
row,SMILES,IC50 [nM]
1,"COC[C@H]1CN(c2ccc(Nc3ccc(-c4cnc5cc(F)ccn45)c4c3C(=O)NC4)nc2)CCO1 [I-421, (R)-4-(7-fluoroimidazo [1,2-a]pyridin-3-yl)-7-((5-(2-(methoxymeth-yl)morpholino)pyridin-2-yl)amino)isoin-dolin-1-one]",< 100
2,"CNC(C)(C)[C@@H]1CN(c2ccc(Nc3ccc(-c4cnc5cc(F)ccn45)c4c3C(=O)NC4)nc2)CCO1 (single isomer, unassigned) [I-675]",< 100
3,"O=C1NCc2c(-c3cnc4cc(F)ccn34)ccc(Nc3cccc(N4CC[C@@H]5CNC[C@@H]54)n3)c21 [I-498, 4-(7-fluoroimidazo [1,2-a]pyridin-3-yl)-7-((6-((3aR,6aR)-hexahydropy-rrolo[3,4-b]pyrrol-1(2H)-yl)pyridin-2-yl)amino)isoin-dolin-1-one]",< 100
4,"C[C@@H]1COCCN1c1ccc(Nc2ccc(-c3cnc4cc(F)ccn34)c3c2C(=O)NC3)nc1CN(C)C [I-528, 7-[[6-[(dimethylamino)-methyl]-5-[(3R)-3-methylmorpho-lin-4-yl J-2-pyridyl]amino]-4-(7-fluoroimidazo [1,2-a]pyridin-3-yl)isoindolin-1-one Formic acid salt]",< 100
5,"CN(C)Cc1nc(Nc2ccc(-c3cnc4cc(F)ccn34)c3c2C(=O)NC3)ccc1N1CCOCC1 [I-693, 7-((6-((dimethylamino)-methyl)-5-morpholino-pyridin-2-yl)amino)-4-(7-fluoroimidazo [1,2-a]pyridin-3-yl)isoindolin-1-one]",< 100
6,"COC[C@H]1CN(c2ccc(Nc3cnc(-c4ccnc5c4ccn5C)c4c3C(=O)NC4)nc2CN(C)C)CCO1 [I-798, (R)-7-((6-((dimethylamino)-methyl)-5-(2-(methoxymeth-yl)morpholino)pyridin-2-yl)amino)-4-(1-methyl-1H-pyrrolo[2,3-b]pyridin-4-yl)-2,3-dihydro-1H-pyrrolo[3,4-c]pyridin-1-one]",< 100
7,"CN1CCN(c2ccc(Nc3ccc(-c4ccnc5c4ccn5C4CC4)c4c3C(=O)NC4)nc2)CC1 [I-265, 4-(1-cyclopropyl-1H-pyrrolo[2,3-b]pyridin-4-yl)-7-((5-(4-methylpiperazin-1-yl)pyridin-2-yl)amino)isoin-dolin-1-one]",< 100
8,"Cn1ccc2c(-c3ncc(Nc4ccc(N5CC6CCC(C5)N6)cn4)c4c3CNC4=O)ccnc21 [I-262, 7-((5-(3,8-diazabicyclo [3.2.1]octan-3-yl)pyridin-2-yl)amino)-4-(1-methyl-1H-pyrrolo[2,3-b]pyridin-4-yl)-2,3-dihydro-1H-pyrrolo[3,4-c]pyridin-1-Fone]",< 100
9,"O=C1NCc2c(-c3cnn4c3CCCC4)ccc(Nc3ccc(N4CCC[C@]5(CCNC5=O)C4)cn3)c21 [I-446, (S)-7-(6-((3-oxo-7-(4,5,6,7-tetrahydropyra-zolo[1,5-a]pyridin-3-yl)isoindolin-4-yl)amino)pyri-din-3-yl)-2,7-diazaspiro[4.5] decan-1-one]",< 100
10,"COC[C@@H]1CN(c2ccc(Nc3cnc(-c4ccnc5c4ccn5C)c4c3C(=O)NC4)nc2CN(C)C)CCO1 [I-797, (S)-7-((6-((dimethylamino)-methyl)-5-(2-(methoxymeth-yl)morpholino)-pyridin-2-yl)amino)-4-(1-methyl-1H-pyrrolo[2,3-b]pyridin-4-yl)-2,3-dihydro-1H-pyrrolo[3,4-c)pyridin-1-one]",< 100
11,"O=C1NCc2c(-c3cnc4cc(F)ccn34)ccc(Nc3ccc(N4CCO[C@H](C5(O)CC5)C4)cn3)c21 (single isomer, unassigned) [I-662]",< 100
12,"O=C1NCc2c(-c3cnc4cnccn34)ccc(Nc3ccc(N4CCC[C@H](O)CC4)cn3)c21 [I-328, (S)-7-((5-(4-hydroxyazepan-1-yl)pyridin-2-yl)amino)-4-(imidazo[1,2-a]pyrazin-3-yl)isoindolin-1-one]",< 100
13,Cc1ccn2c(-c3ncc(Nc4ccc(N5CCOCC5)cn4)c4c3CNC4=O)cnc2c1 [I-163],100 to 1000
14,"Cc1cc(Nc2ccc(N3CCC(O)CC3)cn2)c2c(c1-c1cnc3cc(F)ccn13)CNC2=O [I-389, 4-(7-fluoroimidazo [1,2-a]pyridin-3-yl)-7-((5-(4-hydroxypiperidin-1-yl)pyridin-2-yl)amino)-5-methylisoindol in-1-one]",< 100
15,"Cc1ccn2c(-c3ccc(Nc4ccc([C@@H]5CCOC5)c(CN(C)C)n4)c4c3CNC4=O)cnc2c1F [I-704, (S)-7-((6-((dimethylamino)-methyl)-5-(tetrahydrofuran-3-yl)pyridin-2-yl)amino)-4-(8-fluoro-7-methylimidazo [1,2-a]pyridin-3-yl)isoindolin-1-one]",< 100
16,"COCC1CN(c2ccc(Nc3ccc(-c4ncnc5c4ccn5C)c4c3C(=O)NC4)nc2)CCO1 (stereo in doubt) [I-649, (R)-7-((5-(2-(methylmeth-yl)morpho-lino)pyridin-2-yl)amino)-4-(7-methyl-7]-4-pyrrolo[2,3-d]pyrimidin-4-yl)isoindolin-1-one]",< 100
17,"Cc1ccc2c(-c3ccc(Nc4ccc(N5CCC(O)CC5)cn4)c4c3CNC4=O)cnn2c1 [I-137, 7-[[5-(4-hydroxy-1-piperidyl)-2-pyridyl]amino]-4-(6-methylpyrazolo[1,5-a]pyridin-3-yl)isoindolin-1-one]",< 100
18,"COc1cc(Nc2cnc(-c3ccnc4c3ccn4C)c3c2C(=O)NC3)nc(N2CC[C@H]3CNC[C@H]32)c1 [I-681, 7-((6-((3aS, 6aS)-hexahydropyrrolo[3,4-b]pyrrol-1(2H)-yl)-4-methoxypyridin-2-yl)amino)-4-(1-methyl-1H-pyrrolo[2,3-b]pyridin-4-yl)-2,3-dihydro-1H-pyrrolo[3,4-c]pyridin-1-one]",< 100
19,"Cc1cc(Nc2cnc(-c3ccnc4c3ccn4C)c3c2C(=O)NC3)nc(N2CC[C@@H]3CN(C)C[C@@H]32)c1 [I-644, 4-(1-methyl-1H-pyrrolo[2,3-b]pyridin-4-yl)-7-((4-methyl-6-((3aR,6aR)-5-methylhexahydropyrrolo[3,4-b]pyrrol-1(2H)-yl)pyridin-2-yl)amino)-2,3-dihydro-1H-pyrrolo[3,4-c]pyridin-1-one]",100 to 1000
20,"Cc1ccn2c(-c3ccc(Nc4ccc(N5CCOC(CN(C)C)C5)cn4)c4c3CNC4=O)cnc2c1F (stereo in doubt) [I-614, (R)-7-((5-(2-((dimethylamino)-methyl)mor-pholino)pyridin-2-yl)amino)-4-(8-fluoro-7-methylimidazo [1,2-a]pyridin-3-yl)isoindolin-1-one]",< 100
21,"CC(C)(O)[C@@H]1CN(c2ccc(Nc3ccc(-c4cnc5cccnn45)c4c3C(=O)NC4)nc2)CCO1 [I-474, 7-[[5-[(2S)-2-(1-hydroxy-1-methyl-ethyl)morpholin-4-yl]-2-pyridyl]amino]4-imidazo[1,2-b]pyridazin-3-yl-isoindolin-1-one]",< 100
22,"O=C1NCc2c(-c3cnc4cc(F)ccn34)ccc(Nc3ccc(N4CC[C@H](F)[C@@H](O)C4)cn3)c21 [I-346, 7-((5-((3S.4S)-4-fluoro-3-hydroxypiperidin-1-yl)pyridin-2-yl)amino)-4-(7-fluoroimidazo [1,2-a]pyridin-3-yl)isoindolin-1-one]",< 100
23,"Cn1ccc2c(-c3ncc(Nc4ccc(N5CC[C@H](F)[C@@H](O)C5)cn4)c4c3CNC4=O)ccnc21 [I-417, 7-((5-((3S,4S)-4-fluoro-3-hydroxy-piperidin-1-yl)pyridin-2-yl)amino)-4-(1-methyl-1H-pyrrolo[2,3-b]pyridin-4-yl)-2,3-dihydro-1H-pyrrolo[3,4-c]pyridin-1-one]",< 100
